{
  "source": "patent US20100286136A1",
  "about": "“DIHYDRONAPHTHYRIDINYL AND RELATED COMPOUNDS FOR USE IN TREATING OPHTHALMOLOGICAL DISORDERS” (priority 2009, published 2010)",
  "data": [
    {"biological_target": "T1, CCR2b (Homo sapiens, UniProt P41597)", "T1 construct": "host or cells: AequoScreen CCR2b cells", "T1 sequence (P41597 1-360 isoform P41597-2)": "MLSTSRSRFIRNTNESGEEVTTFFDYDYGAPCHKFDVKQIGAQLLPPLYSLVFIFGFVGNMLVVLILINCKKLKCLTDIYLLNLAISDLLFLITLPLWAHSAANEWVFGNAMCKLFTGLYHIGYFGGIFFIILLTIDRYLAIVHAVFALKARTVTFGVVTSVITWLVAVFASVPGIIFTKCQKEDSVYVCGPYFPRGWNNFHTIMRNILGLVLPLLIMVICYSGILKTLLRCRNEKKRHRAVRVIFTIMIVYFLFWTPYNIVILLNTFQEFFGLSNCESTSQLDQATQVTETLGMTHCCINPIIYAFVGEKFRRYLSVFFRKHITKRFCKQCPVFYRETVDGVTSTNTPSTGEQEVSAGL", "assay": "AequoScreen CCR2b calcium flux assay, antagonist mode against reference agonist MCP-1", "type": "cell-based", "settings": "AequoScreen CCR2b (FAST-060A) cells; inhibition of reference agonist MCP-1 at its EC80; read-out: IC50 (μM) Ca^++flux", "description": "The biological activity of the compounds described herein can be evaluated using assays known in the art, such as the AequoScreen™ assay.\nAequoScreen™ CCR2b (FAST-060A) cells grown to mid-log phase in culture media without antibiotics are detached with PBS-EDTA, centrifuged and resuspended in assay buffer (DMEM/HAM's F12 with HEPES, without phenol red+0.1% BSA protease free) at a concentration of 1×10^6 cells/mL. Cells are incubated at room temperature for at least 4 hours with coelenterazine h. Dose response curves are performed before testing. The reference agonist is MCP-1.\nFor agonist testing, 50 μL of cell suspension is mixed with 50 μL of test compound in a 96-well plate. The resulting emission of light is recorded using a Hamamatsu Functional Drug Screening System 6000 (FDSS 6000).\nFollowing an incubation of 15 minutes after the first injection, 100 μL of the resulting cell suspension containing the test compound is mixed with 100 μL of the reference agonist in the 96 well test plate. The resulting emission of light is recorded using the same luminometer as for agonist testing.\nAgonist activity of a test compound can be expressed as a percentage of the activity of the reference agonist at its EC100 concentration. Antagonist activity of a test compound can be expressed as a percentage of the inhibition of reference agonist activity at its EC80 concentration.", "units": {"IC50": "µM"}, "values": [
      {"compound": "O=C(N1CCc2ncc(C(F)(F)F)cc2C1)C1(CC2CC2)CCN(Cc2ccc3[nH]ncc3c2)C1", "note": "(stereo not drawn) [Example 17, (1-((1H-Indazol-5-yl)methyl)-3-(cyclopropylmethyl)pyrrolidin-3-yl)(3-(trifluoromethyl)-7,8-dihydro-1,6-naphthyridin-6(5H)-yl)methanone]", "IC50": "> 1"},
      {"compound": "Cn1c(=O)ccc2cc(CN3CCC(CC4CC4)(C(=O)N4CCc5ncc(C(F)(F)F)cc5C4)C3)ccc21", "note": "(stereo not drawn) [Example 22, 6-((3-(Cyclopropylmethyl)-3-(3-(trifluoromethyl)-5,6,7,8-tetrahydro-1,6-naphthyridine-6-carbonyl)pyrrolidin-1-yl)methyl)-1-methylquinolin-2(1H)-one]", "IC50": "> 1"},
      {"compound": "Cn1c(=O)oc2ccc(CN3CCC(CC4CC4)(C(=O)N4CCc5ncc(C(F)(F)F)cc5C4)C3)cc21", "note": "(stereo not drawn) [Example 23, 5-((3-(Cyclopropylmethyl)-3-(3-(trifluoromethyl)-5,6,7,8-tetrahydro-1,6-naphthyridine-6-carbonyl)pyrrolidin-1-yl)methyl)-3-methylbenzo[d]oxazol-2(3H)-one]", "IC50": "< 0.2"},
      {"compound": "CC(C)CC1(C(=O)N2CCc3ncc(C(F)(F)F)cc3C2)CCN(Cc2ccc3oc(=O)n(C)c3c2)C1", "note": "(stereo not drawn) [Example 24, 5-((3-Isobutyl-3-(3-(trifluoromethyl)-5,6,7,8-tetrahydro-1,6-naphthyridine-6-carbonyl)pyrrolidin-1-yl)methyl)-3-methylbenzo[d]oxazol-2(3H)-one]", "IC50": "< 0.2"},
      {"compound": "COCC1(C(=O)N2CCc3ncc(C(F)(F)F)cc3C2)CCN(Cc2ccc3ccc(=O)n(C)c3c2)C1", "note": "(stereo not drawn) [Example 25, 7-((3-(Methoxymethyl)-3-(3-(trifluoromethyl)-5,6,7,8-tetrahydro-1,6-naphthyridine-6-carbonyl)pyrrolidin-1-yl)methyl)-1-methylquinolin-2(1H)-one]", "IC50": "< 0.2"},
      {"compound": "COCC1(C(=O)N2CCc3ncc(C(F)(F)F)cc3C2)CCN(Cc2ccc3sc(=O)n(C)c3c2)C1", "note": "(stereo not drawn) [Example 28, 5-((3-(Methoxymethyl)-3-(3-(trifluoromethyl)-5,6,7,8-tetrahydro-1,6-naphthyridine-6-carbonyl)pyrrolidin-1-yl)methyl)-3-methylbenzo[d]thiazol-2(3H)-one]", "IC50": "< 0.2"},
      {"compound": "COCC1(C(=O)N2CCc3ncc(C(F)(F)F)cc3C2)CCN(C(C)c2ccc3c(c2)n(C)c(=O)n3C)C1", "note": "(stereo not drawn) [Example 29, 5-(1-(3-(Methoxymethyl)-3-(3-(trifluoromethyl)-5,6,7,8-tetrahydro-1,6-naphthyridine-6-carbonyl)pyrrolidin-1-yl)ethyl)-1,3-dimethyl-1H-benzo[d]imidazol-2(3H)-one]", "IC50": "< 0.2"},
      {"compound": "COCC1(C(=O)N2CCc3ncc(C(F)(F)F)cc3C2)CCN(Cc2ccc3c(c2)N(C)C(=O)CO3)C1", "note": "(stereo not drawn) [Example 32, 6-((3-(Methoxymethyl)-3-(3-(trifluoromethyl)-5,6,7,8-tetrahydro-1,6-naphthyridine-6-carbonyl)pyrrolidin-1-yl)methyl)-4-methyl-2H-benzo[b][1,4]oxazin-3(4H)-one]", "IC50": "< 0.2"},
      {"compound": "COCC1(C(=O)N2CCc3ncc(C(F)(F)F)cc3C2)CCN(C(C)c2ccc3c(c2)N(C)C(=O)CO3)C1", "note": "(stereo not drawn) [Example 33, 6-(1-(3-(Methoxymethyl)-3-(3-(trifluoromethyl)-5,6,7,8-tetrahydro-1,6-naphthyridine-6-carbonyl)pyrrolidin-1-yl)ethyl)-4-methyl-2H-benzo[b][1,4]oxazin-3(4H)-one]", "IC50": "< 0.2"},
      {"compound": "COCC1(C(=O)N2CCc3ncc(C(F)(F)F)cc3C2)CCN(C(C)c2ccc3oc(=O)n(C)c3c2)C1", "note": "(stereo not drawn) [Example 34, 5-(1-(3-(Methoxymethyl)-3-(3-(trifluoromethyl)-5,6,7,8-tetrahydro-1,6-naphthyridine-6-carbonyl)pyrrolidin-1-yl)ethyl)-3-methylbenzo[d]oxazol-2(3H)-one]", "IC50": "< 0.2"},
      {"compound": "COCC1(C(=O)N2CCc3ncc(C(F)(F)F)cc3C2)CCN(C2CCC(O)(C3CC3)CC2)C1", "note": "(stereo not drawn) [Example 35]", "IC50": "0.2 to 1"},
      {"compound": "COCC1(C(=O)N2CCc3ncc(C(F)(F)F)cc3C2)CCN(Cc2cc3c(ccc(=O)n3C)cc2Cl)C1", "note": "(stereo not drawn) [Example 36, 6-Chloro-7-((3-(methoxymethyl)-3-(3-(trifluoromethyl)-5,6,7,8-tetrahydro-1,6-naphthyridine-6-carbonyl)pyrrolidin-1-yl)methyl)-1-methylquinolin-2(1H)-one]", "IC50": "0.2 to 1"},
      {"compound": "COCC1(C(=O)N2CCc3ncc(C(F)(F)F)cc3C2)CCN(Cc2cc3c(cc2Cl)oc(=O)n3C)C1", "note": "(stereo not drawn) [Example 37, 6-Chloro-5-((3-(methoxymethyl)-3-(3-(trifluoromethyl)-5,6,7,8-tetrahydro-1,6-naphthyridine-6-carbonyl)pyrrolidin-1-yl)methyl)-3-methylbenzo[d]oxazol-2(3H)-one]", "IC50": "< 0.2"},
      {"compound": "COCC1(C(=O)N2CCc3ncc(C(F)(F)F)cc3C2)CCN(Cc2ccc3c(c2)n(C)c(=O)n3C)C1", "note": "(stereo not drawn) [Example 38, 5-((3-(Methoxymethyl)-3-(3-(trifluoromethyl)-5,6,7,8-tetrahydro-1,6-naphthyridine-6-carbonyl)pyrrolidin-1-yl)methyl)-1,3-dimethyl-1H-benzo[d]imidazol-2(3H)-one]", "IC50": "> 1"},
      {"compound": "COCC1(C(=O)N2CCc3ncc(C(F)(F)F)cc3C2)CCN(Cc2ccc3oc(=O)n(C)c3c2)C1", "note": "(stereo not drawn) [Example 39, 5-((3-(Methoxymethyl)-3-(3-(trifluoromethyl)-5,6,7,8-tetrahydro-1,6-naphthyridine-6-carbonyl)pyrrolidin-1-yl)methyl)-3-methylbenzo[d]oxazol-2(3H)-one]", "IC50": "< 0.2"},
      {"compound": "CCOCC1(C(=O)N2CCc3ncc(C(F)(F)F)cc3C2)CCN(Cc2ccc3oc(=O)n(C)c3c2)C1", "note": "(stereo not drawn) [Example 45, 5-((3-(Ethoxymethyl)-3-(3-(trifluoromethyl)-5,6,7,8-tetrahydro-1,6-naphthyridine-6-carbonyl)pyrrolidin-1-yl)methyl)-3-methylbenzo[d]oxazol-2(3H)-one]", "IC50": "< 0.2"},
      {"compound": "COCC1(C(=O)N2CCc3ccc(C(F)(F)F)cc3C2)CCN(Cc2ccc3oc(=O)n(C)c3c2)C1", "note": "(stereo not drawn) [Example 46, 5-((3-(methoxymethyl)-3-(7-(trifluoromethyl)-1,2,3,4-tetrahydroisoquinoline-2-carbonyl)pyrrolidin-1-yl)methyl)-3-methylbenzo[d]oxazol-2(3H)-one]", "IC50": "< 0.2"},
      {"compound": "CC(C)C1(C(=O)N2CCc3ncc(C(F)(F)F)cc3C2)CCN(Cc2ccc3oc(=O)n(C)c3c2)C1", "note": "(stereo not drawn) [Example 47, 5-((3-isopropyl-3-(3-(trifluoromethyl)-5,6,7,8-tetrahydro-1,6-naphthyridine-6-carbonyl)pyrrolidin-1-yl)methyl)-3-methylbenzo[d]oxazol-2(3H)-one]", "IC50": "< 0.2"},
      {"compound": "Cn1c(=O)oc2ccc(CN3CCC(CC#N)(C(=O)N4CCc5ncc(C(F)(F)F)cc5C4)C3)cc21", "note": "(stereo not drawn) [Example 48, 2-(1-((3-methyl-2-oxo-2,3-dihydrobenzo[d]oxazol-5-yl)methyl)-3-(3-(trifluoromethyl)-5,6,7,8-tetrahydro-1,6-naphthyridine-6-carbonyl)pyrrolidin-3-yl)acetonitrile]", "IC50": "0.2 to 1"},
      {"compound": "Cn1c(=O)oc2ccc(CN3CCC(CO)(C(=O)N4CCc5ncc(C(F)(F)F)cc5C4)C3)cc21", "note": "(stereo not drawn) [Example 49, 5-((3-(Hydroxymethyl)-3-(3-(trifluoromethyl)-5,6,7,8-tetrahydro-1,6-naphthyridine-6-carbonyl)pyrrolidin-1-yl)methyl)-3-methylbenzo[d]oxazol-2(3H)-one]", "IC50": "> 1"},
      {"compound": "CC(C)CC1(C(=O)N2CCc3ncc(C(F)(F)F)cc3C2)CCN(Cc2ccc3c(c2)sc(=O)n3C)CC1", "note": "[Example 58, 6-((4-Isobutyl-4-(3-(trifluoromethyl)-5,6,7,8-tetrahydro-1,6-naphthyridine-6-carbonyl)piperidin-1-yl)methyl)-3-methylbenzo[d]thiazol-2(3H)-one]", "IC50": "> 1"}
    ]}
  ]
}
